SMILES strings stand for the structures. pIC50: −log10 of the molar value.

For orientation: pIC50 means the IC50 on a negative log10 scale, so that one unit is a factor of ten.

Sequence of Ribosomal protein S6 kinase alpha-3 (P51812 whole entry): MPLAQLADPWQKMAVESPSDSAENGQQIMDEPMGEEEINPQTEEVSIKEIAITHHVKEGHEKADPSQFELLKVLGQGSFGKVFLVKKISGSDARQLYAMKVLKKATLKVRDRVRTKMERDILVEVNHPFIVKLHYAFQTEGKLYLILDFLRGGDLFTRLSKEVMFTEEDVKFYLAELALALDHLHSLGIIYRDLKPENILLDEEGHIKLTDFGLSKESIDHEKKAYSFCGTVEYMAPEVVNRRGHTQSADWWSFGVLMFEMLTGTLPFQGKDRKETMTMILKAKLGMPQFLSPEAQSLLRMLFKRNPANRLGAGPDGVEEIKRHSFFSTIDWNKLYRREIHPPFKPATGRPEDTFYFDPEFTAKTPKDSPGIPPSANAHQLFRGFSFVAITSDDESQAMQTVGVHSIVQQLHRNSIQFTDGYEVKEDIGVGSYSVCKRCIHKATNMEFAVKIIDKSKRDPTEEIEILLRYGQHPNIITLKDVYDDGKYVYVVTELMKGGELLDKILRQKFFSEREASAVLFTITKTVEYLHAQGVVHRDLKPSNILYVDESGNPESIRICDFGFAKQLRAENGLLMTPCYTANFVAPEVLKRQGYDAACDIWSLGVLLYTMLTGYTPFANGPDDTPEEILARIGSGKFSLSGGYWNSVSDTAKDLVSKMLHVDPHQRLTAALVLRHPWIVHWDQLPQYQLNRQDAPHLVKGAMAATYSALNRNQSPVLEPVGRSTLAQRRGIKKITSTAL

This assay concerns the target Ribosomal protein S6 kinase alpha-3 (Homo sapiens, UniProt P51812). As to the kind of experiment: RSK2 Inhibition Assay. The settings on record: pH 7.4; 25 °C. How it is done:
The inhibition assays against RSK2 in vitro were determined by ADP Quest® (DiscoveRx) in 96-well flat-bottom plates according to the manufacturer's instructions [Lu et al., J. Med. Chem., 54:3564-3574]. The kinase (20 ng millipore) in 40 μL assay buffer (15 mM HEPES, pH 7.4, 20 mM NaCl, 1 mM EGTA, 0.02% Tween 20, 10 mM MgCl2, and 0.1 mg/mL BGG) containing 25 μM S6 peptide (AKRRRLSSLRA, Anaspec) was incubated for 20 min at room temperature with indicated concentrations of the compounds to be tested. Reactions were initiated by adding 10 μL of ATP to a final ATP concentration of 10 μM and terminated after 60 min at room temperature by adding 20 μL ADP Reagent A and 40 μL ADP Reagent B. Ro31-8220 was used as a positive control. Compounds dilutions were prepared from stock in DMSO and diluted with assay buffer for inhibition assay. The fluorescence signal detecting the amount of ADP produced as a result of enzyme activity was recorded on the Synergy™ 2 Multi-Mode Microplate Reader (BioTek) at an excitation wavelength of 530 nm and an emission wavelength of 590 nm at 30 min after the addition of the ADP Reagent B.
With `O=C1NC(=S)NC(=O)C1=NNc1ccc(N2CCOCC2)cc1` [5-(2-(4-Morpholinophenyl)hydrazono-dihydro-2-thioxopyrimidine-4,6(1H,5H)-dione (15)], the pIC50 is 5.03.

Turning to `O=C1NC(=S)NC(=O)C1=NNc1ccc(O)cc1` [5-(2-(4-Hydroxyphenyl)hydrazono)-dihydro-2-thioxopyrimidine-4,6(1H,5H)-dione (14)], the pIC50 is 5.66.

For `O=C1NC(=O)C(=NNc2ccc(O)cc2)C(=O)N1` [5-(2-(4-Hydroxyphenyl)hydrazono)pyrimidine-2,4,6(1H,3H,5H)-trione (9)], the pIC50 is 5.71.

As to `O=C1NC(=O)C(=NNc2ccc(N3CCOCC3)cc2)C(=O)N1` [5-(2-(4-Morpholinophenyl)hydrazono)pyrimidine-2,4,6(1H,3H,5H)-trione (13)], the pIC50 was 5.29.

The values are drawn from BindingDB's records for doi:10.3109/14756366.2012.681651 (East China University of Science and Technology, 2013).
